From patent US20030026831A1, “Anionic liposomes for delivery of bioactive agents” (priority 2001, published 2003)
{Cy3} = Cy3 fluorescent dye label

Assays:
Human hepatoma (Huh-7) = assay: Uptake of Cy3-ONs by Huh-7 cells; type: cell-based; conditions: 1 μM Cy3-ONs, 1 h at 37° C.
Method: (§1) The ability of this delivery system to deliver DNA to cell types other than neurons was investigated by studying uptake of Cy3-oligonucleotides delivered by anionic DOPC/DOPG liposomes in cells derived from a variety of tissues. CHO, HeLa, HuH-7, MDCK and MEF-1 cells all avidly internalized AL-Cy3ONs within 1 h of incubation (FIG. 2). Uptake of AL-Cy3ONs occurred in the presence of serum in the culture medium. Similar to the uniform uptake seen in primary neurons, Cy3 fluorescence was visible in almost all cells exposed to AL-Cy3ONs in all cell types studied (Table 1). On the other hand, uptake of Cy3ON either without a delivery vector or complexed to cationic DC-Chol/DOPE liposomes was cell type-dependent, ranging from ˜5% in MDCK cells to ˜50% in HeLa cells (Table 1).

[1] = system: Primary rat hippocampal neurons; assay: Uptake of Cy3-ONs by hippocampal neurons; type: cell-based
Method: Hippocampal Cell Culture. Primary cultures of hippocampal neurons were prepared from neonatal rat pups (P1 or P2) as previously described (Dubinsky, 1993). Neurons were plated onto 22-mm square glass coverslips coated with collagen and polylysine, at a density of 150,000 cells per coverslip. Neurons were cultured for 24-30 hours in minimum essential medium (MEM) with 10% NUSERUM (Collaborative Research) to increase attachment to the glass substrate, after which the growing medium was replaced with Neurobasal medium with B27 supplements (Life Technologies, Rockville, Md.). Fluorodeoxyuridine (15 μg/ml) was added to restrict the growth of non-neuronal cells. Cultures were maintained at 37° C. in a humidified atmosphere containing 5% CO2 for 6-9 days before use.
Uptake of Cy3-ONs by hippocampal neurons. […] Uninternalized ONs, liposomes or complexes were removed by several washes with L15 (Leibovitz's) medium. Cells were then fixed in 4% paraformaldehyde for 15 minutes at room temperature. For low temperature studies, neurons were incubated at 4° C. with AL-Cy3ONs for 10 minutes and then fixed. The cells were imaged immediately after fixation to avoid a potential redistribution of ONs (Grzanna et al., 1998).
(§2) Confocal Microscopy and Image Analysis. Imaging was performed on a Leica TCS 4D confocal microscope (Deerfield, Ill.) equipped with a Mercury/Xenon lamp and argon/krypton laser. Cells were excited using the 488 nm laser line to detect Oregon Green 488-Transferrin and Alexa488-Dextran, and the emitted fluorescence was collected using a 515 long-pass filter. The 568 nm laser line was used to excite Cy3 and N—Rh-DOPE (LP590 emission). Cells were imaged at a plane midway between the substrate-attached plasma membrane and the top of the cell, such that neuronal nuclei were clearly identifiable. In some cases, the entire volume of the cell was scanned in 0.5 μm increments. Optimal images were obtained by averaging 16 images in the line-scan mode at the same fixed gains for all experiments. […]

[2] = system: Canine kidney cell line (MDCK); assay: Uptake of Cy3-ONs by MDCK cells; type: cell-based; conditions: 1 μM Cy3-ONs, 1 h at 37° C.
Method: as §1

[3] = system: Chinese hamster ovary cell line (CHO-K1); assay: Uptake of Cy3-ONs by CHO-K1 cells; type: cell-based; conditions: 1 μM Cy3-ONs, 1 h at 37° C.
Method: as §1

hippocampal neurons [4] = assay: Colocalization with transferrin (early and recycling endosomes); type: cell-based, rat; conditions: delivered in anionic liposomes
Method: (§3) Colocalization of Lipids and Oligonucleotides with Transferrin and Dextran. Intracellular fates of endocytosed liposomes and ONs were determined by comparing their intracellular distributions with that of Oregon Green 488-Transferrin (OG-Tf) and Alexa488-dextran (Molecular Probes, Eugene, Oreg.) used as markers for the recycling and lysosomal compartments, respectively. Neurons were incubated with AL-Cy3ONs and either 100 μg/ml OG-Tf, for 30 minutes, 1 hour or 3 hours; or with 1 mg/ml Alexa488-dextran for 3 hours. For the lipid transport experiments, neurons were incubated with liposomes labeled with N—Rh-DOPE and either OG-TF, for 30 minutes, 1 hour, or 3 hours; or with 1 mg/ml Alexa-dextran for 3 hours. In another set of experiments, neurons were incubated with AL-Cy3ONs for 30 minutes, rinsed and chased with 1 mg/ml Alexa 488 dextran for 3 hours. Cells were rinsed and fixed for imaging as described above.
Confocal Microscopy and Image Analysis. Imaging was performed on a Leica TCS 4D confocal microscope (Deerfield, Ill.) equipped with a Mercury/Xenon lamp and argon/krypton laser. Cells were excited using the 488 nm laser line to detect Oregon Green 488-Transferrin and Alexa488-Dextran, and the emitted fluorescence was collected using a 515 long-pass filter. The 568 nm laser line was used to excite Cy3 and N—Rh-DOPE (LP590 emission). Cells were imaged at a plane midway between the substrate-attached plasma membrane and the top of the cell, such that neuronal nuclei were clearly identifiable. In some cases, the entire volume of the cell was scanned in 0.5 μm increments. Optimal images were obtained by averaging 16 images in the line-scan mode at the same fixed gains for all experiments. All fluorescent images presented in figures were equally contrast enhanced using ADOBE PHOTOSHOP (Adobe, Mountain View, Calif.).
(§4) All image analysis was performed using the METAMORPH Imaging System software (Universal Imaging, Downington, Pa.). The cell outlines for each set of double-labeled fields were traced out manually in the corresponding differential interference contrast image and then used to mask the fluorescence images. In each cell, the total fluorescence intensity was measured and the percent of Cy3 label or rhodamine label that colocalized with transferrin or dextran was calculated.

[5] = system: Human cervical carcinoma (HeLa); assay: Uptake of Cy3-ONs by HeLa cells; type: cell-based; conditions: 1 μM Cy3-ONs, 1 h at 37° C.
Method: as §1

[6] = system: Mouse embryonic fibroblasts (MEF-1); assay: Uptake of Cy3-ONs by LRP-expressing MEF-1 cells; type: cell-based; conditions: 1 μM Cy3-ONs, 1 h at 37° C.
Method: as §1
The endocytosis of AL-Cy3ONs in immortalized mouse embryonic fibroblast cell lines that expressed LRP (MEF-1) was compared to endocytosis of AL-Cy3ONs in immortalized mouse embryonic fibroblast cell lines that lacked the receptor (PEA-13).

hippocampal neurons [7] = assay: Colocalization with dextran (late endosomes and lysosomes); type: cell-based, rat; conditions: 3 h, delivered in anionic liposomes
Method: as §3
as §2, with “increments.” for “increments. Optimal images were obtained by averaging 16 images in the line-scan mode at the same fixed gains for all experiments.”
as §4

## Cy3-ONs without delivery system: 18-mer 5′-CTGTGAATCCTCCATGAC-3′ (SEQ ID NO:2), targets rat p53 mRNA, labeled at the 5′-end with Cy3 (DNA, 5' {Cy3}, backbone not given here; listed as Rattus norvegicus)
Human hepatoma (Huh-7)
  Percent of cells with intracellular Cy3 fluorescence: 18.3%
[1]; 1 μM Cy3-ONs, 1 h, serum-containing medium
  Uptake of Cy3-ONs by neurons: taken up by a low percentage of neurons
[1]; 2 μM Cy3ONs, 30 minutes at 37° C.
  Neuronal Cy3 fluorescence: low level of diffuse cellular fluorescence in only a small percent of cells
[1]; Primary rat hippocampal neurons, 1 μM Cy3-ONs, 1 h at 37° C.
  Percent of cells with intracellular Cy3 fluorescence: 6%
[2]
  Percent of cells with intracellular Cy3 fluorescence: ~5%
[3]
  Percent of cells with intracellular Cy3 fluorescence: 17%
Hippocampal neurons [4]; 30 min, listed as Cy3ON
  Percent colocalization with Transferrin: 14.86 ± 1%
Hippocampal neurons [4]; 30 min, listed as Cy3ONs
  Percent colocalization with Transferrin: 15%
Hippocampal neurons [4]; 1 h
  Percent colocalization with Transferrin: 22.67 ± 1.7%
Hippocampal neurons [4]; 3 h, listed as Cy3ON
  Percent colocalization with Transferrin: 24.62 ± 2%
Hippocampal neurons [4]; 3 h, listed as Cy3ONs
  Percent colocalization with Transferrin: ≤ 25%
[5]
  Percent of cells with intracellular Cy3 fluorescence: 51.5%
[5]; listed as Cy3ON without a delivery vector
  Percent of cells with intracellular Cy3 fluorescence: ~50%
[6]
  Percent of cells with intracellular Cy3 fluorescence: 20%
Hippocampal neurons [7]; listed as Cy3ON
  Percent colocalization with Dextran: 20.13 ± 1.8%
Hippocampal neurons [7]; listed as Cy3ONs
  Percent colocalization with Dextran: 20%
